Experimental data from patent US10765114B2, “4-amino-6-(pyridyl and 2-substitutedphenyl)-picolinates and 6-amino-2-(pyridyl and 2-substitutedphenyl)-pyrimidine-4-carboxylates and their use as herbicides” (Dow AgroSciences LLC, priority 2013, dated 2020).

Test system: Key Grass and Sedge Weeds as well as Grass Crops
Assay: Post-Emergent Test II (Table 6)
Type: in vivo
Conditions: post-emergence, 336 h, ZEAMX: maize, corn (Zea mays), 140 g ai/ha, 14 days after application, read-out: Visual Growth Reduction (%) 14 Days After Application ZEAMX
Method in brief: (§1)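 Visual injury ratings (0 = no injury, 100 = complete kill) were taken 14 days after treatment relative to untreated plants. Seedlings at the first or second true leaf stage received an overhead spray at 187 L/ha, and solvent-blank sprayed plants served as controls.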

Question: Which pest or weed control at 140 g/ha does the source give for `Nc1c(Cl)c(C(=O)O)nc(-c2ccc(C(F)(F)F)nc2)c1Cl` [Compound 33] here?
Answer: 60 to 74%

Test system: not given
Assay: not given
Conditions: not given

Question: With `Nc1c(Cl)c(C(=O)O)nc(-c2ccc(C(F)(F)F)nc2)c1Cl` [Compound 33] as the molecule, how does the melting point read?
Answer: 155 to 158 °C

Test system: Key Broadleaf Weed and Crop Species
Assay: Post-Emergent Test II (Table 5)
Type: in vivo
Conditions: Abutilon theophrasti, post-emergence, 336 h, ABUTH: velvetleaf (Abutilon theophrasti), application rate 70 (kg ai/ha; footnote: g ai/ha), read-out: Visual Growth Reduction (%) 14 Days After Application ABUTH
Method in brief: as §1

Question: With `Nc1c(Cl)c(C(=O)O)nc(-c2ccc(C(F)(F)F)nc2)c1Cl` [Compound 33] as the molecule, how does the pest or weed control at 70 g/ha read?
Answer: 0 to 29%

Same assay, conditions: Abutilon theophrasti, post-emergence, 336 h, ABUTH: velvetleaf (Abutilon theophrasti), application rate 140 (kg ai/ha; footnote: g ai/ha), read-out: Visual Growth Reduction (%) 14 Days After Application ABUTH

Question: Which pest or weed control at 140 g/ha does the source give for `Nc1c(Cl)c(C(=O)O)nc(-c2ccc(C(F)(F)F)nc2)c1Cl` [Compound 33] here?
Answer: 0 to 29%

Same assay, conditions: Amaranthus retroflexus, post-emergence, 336 h, AMARE: redroot pigweed (Amaranthus retroflexus), application rate 70 (kg ai/ha; footnote: g ai/ha), read-out: Visual Growth Reduction (%) 14 Days After Application AMARE

Question: With `Nc1c(Cl)c(C(=O)O)nc(-c2ccc(C(F)(F)F)nc2)c1Cl` [Compound 33] as the molecule, how does the pest or weed control at 70 g/ha read?
Answer: 60 to 74%

Same assay, conditions: Amaranthus retroflexus, post-emergence, 336 h, AMARE: redroot pigweed (Amaranthus retroflexus), application rate 140 (kg ai/ha; footnote: g ai/ha), read-out: Visual Growth Reduction (%) 14 Days After Application AMARE

Question: For `Nc1c(Cl)c(C(=O)O)nc(-c2ccc(C(F)(F)F)nc2)c1Cl` [Compound 33], which pest or weed control at 140 g/ha is on record?
Answer: 95 to 100%

Same assay, conditions: Brassica napus, post-emergence, 336 h, BRSSS: oilseed rape, canola (Brassica napus), application rate 70 (kg ai/ha; footnote: g ai/ha), read-out: Visual Growth Reduction (%) 14 Days After Application BRSSS

Question: With `Nc1c(Cl)c(C(=O)O)nc(-c2ccc(C(F)(F)F)nc2)c1Cl` [Compound 33] as the molecule, how does the pest or weed control at 70 g/ha read?
Answer: 0 to 29%

Same assay, conditions: Brassica napus, post-emergence, 336 h, BRSSS: oilseed rape, canola (Brassica napus), application rate 140 (kg ai/ha; footnote: g ai/ha), read-out: Visual Growth Reduction (%) 14 Days After Application BRSSS

Question: With `Nc1c(Cl)c(C(=O)O)nc(-c2ccc(C(F)(F)F)nc2)c1Cl` [Compound 33] as the molecule, how does the pest or weed control at 140 g/ha read?
Answer: 30 to 44%

Same assay, conditions: Chenopodium album, post-emergence, 336 h, CHEAL: lambsquarters (Chenopodium album), application rate 70 (kg ai/ha; footnote: g ai/ha), read-out: Visual Growth Reduction (%) 14 Days After Application CHEAL

Question: Which pest or weed control at 70 g/ha does the source give for `Nc1c(Cl)c(C(=O)O)nc(-c2ccc(C(F)(F)F)nc2)c1Cl` [Compound 33] here?
Answer: 85 to 94%

Same assay, conditions: Chenopodium album, post-emergence, 336 h, CHEAL: lambsquarters (Chenopodium album), application rate 140 (kg ai/ha; footnote: g ai/ha), read-out: Visual Growth Reduction (%) 14 Days After Application CHEAL

Question: With `Nc1c(Cl)c(C(=O)O)nc(-c2ccc(C(F)(F)F)nc2)c1Cl` [Compound 33] as the molecule, how does the pest or weed control at 140 g/ha read?
Answer: 85 to 94%

Same assay, conditions: Euphorbia heterophylla, post-emergence, 336 h, EPHHL: wild poinsettia (Euphorbia heterophylla), application rate 70 (kg ai/ha; footnote: g ai/ha), read-out: Visual Growth Reduction (%) 14 Days After Application EPHHL

Question: Which pest or weed control at 70 g/ha does the source give for `Nc1c(Cl)c(C(=O)O)nc(-c2ccc(C(F)(F)F)nc2)c1Cl` [Compound 33] here?
Answer: 75 to 84%

Same assay, conditions: Euphorbia heterophylla, post-emergence, 336 h, EPHHL: wild poinsettia (Euphorbia heterophylla), application rate 140 (kg ai/ha; footnote: g ai/ha), read-out: Visual Growth Reduction (%) 14 Days After Application EPHHL

Question: For `Nc1c(Cl)c(C(=O)O)nc(-c2ccc(C(F)(F)F)nc2)c1Cl` [Compound 33], which pest or weed control at 140 g/ha is on record?
Answer: 75 to 84%

Same assay, conditions: Helianthus annuus, post-emergence, 336 h, HELAN: sunflower (Helianthus annuus), application rate 70 (kg ai/ha; footnote: g ai/ha), read-out: Visual Growth Reduction (%) 14 Days After Application HELAN

Question: With `Nc1c(Cl)c(C(=O)O)nc(-c2ccc(C(F)(F)F)nc2)c1Cl` [Compound 33] as the molecule, how does the pest or weed control at 70 g/ha read?
Answer: 85 to 94%

Same assay, conditions: Helianthus annuus, post-emergence, 336 h, HELAN: sunflower (Helianthus annuus), application rate 140 (kg ai/ha; footnote: g ai/ha), read-out: Visual Growth Reduction (%) 14 Days After Application HELAN

Question: Which pest or weed control at 140 g/ha does the source give for `Nc1c(Cl)c(C(=O)O)nc(-c2ccc(C(F)(F)F)nc2)c1Cl` [Compound 33] here?
Answer: 95 to 100%

Same assay, conditions: Viola tricolor, post-emergence, 336 h, VIOTR: wild pansy (Viola tricolor), application rate 70 (kg ai/ha; footnote: g ai/ha), read-out: Visual Growth Reduction (%) 14 Days After Application VIOTR

Question: Which pest or weed control at 70 g/ha does the source give for `Nc1c(Cl)c(C(=O)O)nc(-c2ccc(C(F)(F)F)nc2)c1Cl` [Compound 33] here?
Answer: 0 to 29%

Same assay, conditions: Viola tricolor, post-emergence, 336 h, VIOTR: wild pansy (Viola tricolor), application rate 140 (kg ai/ha; footnote: g ai/ha), read-out: Visual Growth Reduction (%) 14 Days After Application VIOTR

Question: Which pest or weed control at 140 g/ha does the source give for `Nc1c(Cl)c(C(=O)O)nc(-c2ccc(C(F)(F)F)nc2)c1Cl` [Compound 33] here?
Answer: 0 to 29%
